Measurements taken from article PMC4929166, “Pharmacological evaluation of synthetic cannabinoids identified as constituents of spice” (Forensic Toxicology, 2016).
Like-named read-outs stand apart in the source and are kept apart here.

How the values were obtained:
[1] = target: T1, CB2 receptor (Homo sapiens, UniProt P34972); assay: cAMP accumulation assay in CHO cells expressing CB2; assay type: cell-based; set-up: expressed in transfected cells; host or cells: CHO cells; details: cAMP accumulation, forskolin 10 µM, normalized to CP55,940; for efficacy at CB2 receptor (in words): test concentration 1 µM or 10 µM
T1 sequence (P34972 whole entry): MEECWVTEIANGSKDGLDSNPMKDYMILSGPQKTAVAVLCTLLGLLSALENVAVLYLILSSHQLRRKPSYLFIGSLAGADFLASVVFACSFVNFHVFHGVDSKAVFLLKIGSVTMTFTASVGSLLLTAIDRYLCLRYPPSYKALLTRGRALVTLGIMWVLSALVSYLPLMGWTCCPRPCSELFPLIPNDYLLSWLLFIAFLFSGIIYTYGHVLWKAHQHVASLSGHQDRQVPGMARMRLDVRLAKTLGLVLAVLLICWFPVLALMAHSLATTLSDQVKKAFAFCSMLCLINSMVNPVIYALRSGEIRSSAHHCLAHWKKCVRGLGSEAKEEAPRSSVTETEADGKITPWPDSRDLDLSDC

[2] = target: T2, CB1 receptor (Homo sapiens, UniProt P21554); assay: cell-based; assay type: cell-based; set-up: expressed in transfected cells; host or cells: CHO cells; details: cAMP accumulation, forskolin 10 µM; test concentration 1 µM or 10 µM; normalized to CP55,940
T2 sequence (P21554 whole entry): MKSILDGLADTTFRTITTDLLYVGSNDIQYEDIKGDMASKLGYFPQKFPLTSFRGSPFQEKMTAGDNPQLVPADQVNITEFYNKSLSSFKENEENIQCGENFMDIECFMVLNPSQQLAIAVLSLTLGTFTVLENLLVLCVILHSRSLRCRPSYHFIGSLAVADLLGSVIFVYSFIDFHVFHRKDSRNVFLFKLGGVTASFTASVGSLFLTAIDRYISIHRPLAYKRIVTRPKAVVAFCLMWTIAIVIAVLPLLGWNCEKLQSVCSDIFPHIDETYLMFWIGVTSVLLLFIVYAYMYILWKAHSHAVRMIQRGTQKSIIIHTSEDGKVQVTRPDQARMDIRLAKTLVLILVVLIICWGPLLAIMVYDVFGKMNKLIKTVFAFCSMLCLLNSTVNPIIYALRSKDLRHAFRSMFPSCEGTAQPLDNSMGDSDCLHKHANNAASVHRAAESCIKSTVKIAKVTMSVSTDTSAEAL

[3] = target: T3, human GPR55 (Homo sapiens, UniProt Q9Y2T6); assay: β-Arrestin recruitment assay (PathHunter) at GPR55; assay type: cell-based; details: for IC50: antagonist mode; for Human GPR55 % activation: percent in brackets beside EC50 >10 µM; for Human GPR55 % inhibition: percent in brackets beside IC50
T3 construct: β-galactosidase enzyme fragment (PathHunter complementation tag)
T3 sequence (Q9Y2T6 whole entry, the tested form may be a part): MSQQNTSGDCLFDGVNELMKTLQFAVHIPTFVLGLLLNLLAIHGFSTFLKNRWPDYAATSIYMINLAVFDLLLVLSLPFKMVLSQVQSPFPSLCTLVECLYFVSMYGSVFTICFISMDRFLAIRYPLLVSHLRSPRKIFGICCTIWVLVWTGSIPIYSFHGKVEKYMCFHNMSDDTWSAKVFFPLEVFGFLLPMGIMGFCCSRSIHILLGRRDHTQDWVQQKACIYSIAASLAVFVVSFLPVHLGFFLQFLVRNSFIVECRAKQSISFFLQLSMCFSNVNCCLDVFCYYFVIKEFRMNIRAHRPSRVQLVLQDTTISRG
Protocol: (§1) Recruitment of β-arrestin to the respective receptor was detected by using β-galactosidase enzyme fragment complementation technology (β-arrestin PathHunter™ assay, DiscoverX, Fremont, CA, USA) as previously described. Data were obtained from three independent experiments, performed in duplicates. Data were analyzed using Graph Pad Prism Version 4.02 (San Diego, CA, USA).

[4] = target: T4, human GPR18 (Homo sapiens, UniProt Q14330); assay: β-Arrestin recruitment assay (PathHunter) at GPR18; assay type: cell-based; details: for Human GPR18 % activation: percent in brackets beside EC50 >10 µM; for Human GPR18 % inhibition: percent in brackets beside IC50
T4 construct: β-galactosidase enzyme fragment (PathHunter complementation tag)
T4 sequence (Q14330 1-331): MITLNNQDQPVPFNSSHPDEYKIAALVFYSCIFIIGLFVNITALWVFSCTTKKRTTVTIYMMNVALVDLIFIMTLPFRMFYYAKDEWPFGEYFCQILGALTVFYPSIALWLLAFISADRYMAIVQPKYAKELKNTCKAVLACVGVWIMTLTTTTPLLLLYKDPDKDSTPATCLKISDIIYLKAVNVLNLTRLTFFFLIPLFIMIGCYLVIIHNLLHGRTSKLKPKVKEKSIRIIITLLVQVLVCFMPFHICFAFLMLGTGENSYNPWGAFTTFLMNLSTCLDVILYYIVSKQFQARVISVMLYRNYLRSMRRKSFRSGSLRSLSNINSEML
Protocol: as §1

[5] = target: T1, CB2 receptor; assay: biochemical; assay type: binding; set-up: expressed in transfected cells; host or cells: CHO cells (membrane preparation); details: for Ki: versus 0.1 nM [3H]CP55,940, CHO cell membranes, mean ± SEM of three to five experiments, read-out: Ki ± SEM Human CB2
[6] = target: T2, CB1 receptor; assay: biochemical; assay type: binding; set-up: expressed in transfected cells; host or cells: CHO cells (membrane preparation); details: for CB1 selectivity Ki CB2/KiCB1: Table S1, selectivity index from Ki values; for Ki: versus 0.1 nM [3H]CP55,940, CHO cell membranes, mean ± SEM of three to five experiments, read-out: Ki ± SEM Human CB1
[7] = test system: Human CB2; details: ref Banister et al. [28]; read-out: EC50 Human CB2 (literature, functional assay) (converted); cited from earlier work
[8] = test system: Human CB1; details: ref Banister et al. [28]; read-out: EC50 Human CB1 (literature, functional assay) (converted); cited from earlier work
[9] = Human GPR55 IC50, β-arrestin assay
[10] = Table S1, selectivity index from Ki values

Row | Structure (SMILES) | efficacy at CB1 receptor (in words) [2] | EC50 [3] [µM] | IC50 [3, 9] [µM] | Human GPR55 % activation ([3]; β-arrestin assay) [%] | Human GPR55 % inhibition ([3]; β-arrestin assay) [%] | EC50 [4] [µM] | IC50 [4] [µM] | Human GPR18 % activation ([4]; β-arrestin assay) [%] | Human GPR18 % inhibition ([4]; β-arrestin assay) [%] | CB2 selectivity Ki CB1/KiCB2 [5, 10] | Ki [5] [µM] | CB1 selectivity Ki CB2/KiCB1 [6] | Ki [6] [µM] | EC50 [7] [µM] | EC50 [8] [µM] | further results
1 | CCCCCc1cc(O)c2c(c1)OC(C)(C)[C@@H]1CCC(C)=C[C@@H]21 [Compound 1, Δ^9-tetrahydrocannabinol, reference compound] |  |  |  |  |  |  |  |  |  |  |  |  |  |  |  | activation of CB2 receptor compared to full agonist CP55,940 [1]: 60–70%
2 | O=C(Nc1ccc2ccccc2c1)c1cn(CCCCCF)c2ccccc12 [Compound 7, 5F-NNEI-2-naphthyl-isomer] | lower efficacy than Δ^9-THC | > 10 | > 10 | 19 | 20 | > 10 | > 10 | 9 | 5 | 1.0 | 0.226 ± 0.024 | 1.0 | 0.235 ± 0.015 |  |  | efficacy at CB2 receptor (in words) [1]: lower efficacy than Δ^9-THC; inhibition at 30 µM ([5]; at 30 µM, read-out: Maximal inhibition of radioligand binding, human CB2): 80%; fold decrease of affinity when naphthyl is linked in 2-position ([6]; CB1, compared with 5F-NNEI (5)): about 100 fold
3 | CCCCCn1nc(C(=O)Nc2cccc3ccccc23)c2ccccc21 [Compound 8, MN-18] | lower efficacy than Δ^9-THC | > 10 | > 10 | 27 | 35 | > 10 | > 10 | 2 | 37 | 1.1 | 0.00347 ± 0.00089 | 0.9 | 0.00386 ± 0.0009 |  |  | efficacy at CB2 receptor (in words) [1]: lower efficacy than Δ^9-THC
4 | CCCCCn1cc(C(=O)NCc2ccccc2)c2ccccc21 [Compound 12, SDB-006] |  | > 10 | > 10 | −5 | 36 | > 10 | > 10 | −9 | 22 |  | 0.188 ± 0.038 | 3.5 | 0.053 ± 0.0011 | 0.019 | 0.134 | 
5 | O=C(NCc1ccccc1)c1cn(CCCCCF)c2ccccc12 [Compound 13, 5F-SDB-006] |  | > 10 | > 10 | −3 | 11 | > 10 | > 10 | 13 | −24 |  | 0.43 ± 0.073 | 6.0 | 0.0719 ± 0.0135 | 0.123 | 0.05 | 
6 | CCCCCn1cc(C(=O)NC23CC4CC(CC(C4)C2)C3)c2ccccc21 [Compound 15, APICA] |  | > 10 | 4.77 ± 1.69 | 11 |  | > 10 | > 10 | 8 | 44 |  | 0.00122 ± 0.00014 |  | 0.00652 ± 0.00373 | 0.029 | 0.128 | CB2 selectivity Ki CB1/KiCB2 [5]: 5.3
7 | O=C(NC12CC3CC(CC(C3)C1)C2)c1cn(CCCCCF)c2ccccc12 [Compound 16, STS-135 (5F-APICA)] |  | > 10 | 3.41 ± 0.47 | 1 |  | > 10 | > 10 | −2 | 30 | 3.2 | 0.000794 ± 7.1e-05 |  | 0.00251 ± 0.00035 | 0.013 | 0.051 | 
8 | O=C(NC12CC3CC(CC(C3)C1)C2)c1nn(CCCCCF)c2ccccc12 [Compound 17, 5F-APINACA (5F-AKB48)] | activated CB1 receptor more efficaciously than CB2 |  |  |  |  |  |  |  |  | 7.3 | 0.000266 ± 4.1e-05 |  | 0.00194 ± 0.00055 |  |  | 
9 | O=C(Oc1cccc2ccccc12)c1cn(CCCCCF)c2ccccc12 [Compound 19, NM-2201] | higher efficacy than the full agonist CP55,940 | > 10 | > 10 | 17 | 23 | > 10 | > 10 | −8 | 32 |  | 0.000732 ± 0.000174 | 2.2 | 0.000332 ± 0.000107 |  |  | 
10 | CCCCCn1nc(C(=O)Oc2cccc3ccccc23)c2ccccc21 [Compound 22, SDB-005] |  | > 10 | > 10 | 8 | 23 | > 10 | > 10 | 15 | 24 | 1.4 | 0.00261 ± 0.00107 |  | 0.00359 ± 0.00089 | 0.14 | 0.116 | 
11 | O=C(Oc1cccc2cccnc12)c1cn(CC2CCCCC2)c2ccccc12 [Compound 27, BB-22] | higher efficacy than the full agonist CP55,940 | > 10 | > 10 | 9 | 34 | > 10 | > 10 | 2 | 18 |  | 0.000338 ± 4.5e-05 | 1.6 | 0.000217 ± 5.6e-05 |  |  | 
12 | CCc1ccc(C(=O)c2cn(CCCCCF)c3ccccc23)c2ccccc12 [Compound 31, EAM-2201] | higher efficacy than the full agonist CP55,940 | > 10 | 1.86 ± 0.16 | −24 |  | > 10 | > 10 | 14 | 4 | 1.0 | 0.000371 ± 5.2e-05 | 1.0 | 0.00038 ± 0.000111 |  |  | 
13 | CC1(C)C(C(=O)c2cn(CCCCCF)c3ccccc23)C1(C)C [Compound 38, XLR-11] |  |  |  |  |  |  |  |  |  | 48.4 | 0.000608 ± 0.000151 |  | 0.0294 ± 0.011 | 0.083 | 0.098 | 
14 | CC1(C)C(C(=O)c2cn(Cc3ccc(F)cc3)c3ccccc23)C1(C)C [Compound 42, FUB-144] |  | > 10 | ~10 | −3 | 62 | > 10 | ~10 | −12 | 74 | 16.5 | 0.000846 ± 0.000209 |  | 0.014 ± 0.0027 |  |  | 
15 | CN1CCCCC(Cn2cc(C(=O)C3C(C)(C)C3(C)C)c3ccccc32)C1 (stereo not drawn) [Compound 44, AB005-azepane-isomer] | did not activate |  |  | 21 | 18 |  |  | 11 | −6 | 47.2 | 0.212 ± 0.055 |  | > 10 |  |  | EC50 ([3]; read-out: Human GPR55 EC50, β-arrestin assay, agonist mode): > 10 µM; IC50 ([3]; read-out: Human GPR55 IC50, β-arrestin assay): > 10 µM; EC50 ([4]; read-out: Human GPR18 EC50, β-arrestin assay, agonist mode): > 10 µM; IC50 ([4]; read-out: Human GPR18 IC50, β-arrestin assay, antagonist mode): > 10 µM; efficacy at CB2 receptor (in words) [1]: did not activate; affinity for the CB1 receptor (in words) ([6]; at concentrations up to 10 µM): no affinity; inhibition of radioligand binding at human CB1 (percent in brackets) ([6]; printed in brackets beside Ki ~/>10,000 nM, concentration not given): 13%
16 | Cc1c(C(=O)C2C(C)(C)C2(C)C)c2ccccc2n1CCCCCF [Compound 47, M-144] |  | > 10 | ~10 | −5 | 86 | > 10 | ~10 | −7 | 67 | 4.2 | 0.00459 ± 0.00148 |  | 0.0194 ± 0.0078 |  |  | 
